Test in all cases: inhibition of tumour cell growth, NCI panel, 48 h
Assay [1] deals with SK-MEL-28 melanoma.
Assay [2] deals with OVCAR-3 ovarian.
Assay [3] concerns EKVX NSCLC.
Assay [4] relates to HS 578T breast.
The subject of assay [5] is COLO 205 colon.
Assay [6] has as its system SF-268 CNS.
Assay [7] concerns NCI-H226 lung.
Assay [8] concerns MDA-MB-435.
Assay [9] concerns A549 NSCLC.
Assay [10] has as its system MDA-MB-231 breast.

For nine molecules, GI50 and TGI results are on record in PubChem BioAssay (NCI).

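A five-concentration, 48-hour dose response in 96-well plates underlies each endpoint, interpolated linearly between surrounding concentrations. The concentration for 50% growth inhibition is given as GI50. TGI is the concentration that stops growth completely.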 Bounds are passed on as bounds.

In the case of `CC(C)Cc1ccc(C(C)C(=O)NCc2ccc(Cn3c(=O)sn(CCCI)c3=O)cc2)cc1` (stereo not drawn), the GI50 in [1] is 1.2 µM; in assay [2], 0.269 µM; in assay [3], 1.46 µM; in assay [4], 0.653 µM; in assay [5], 0.271 µM; in assay [6], 1.46 µM. The GI50 in [7] is 0.884 µM; in assay [8], 0.485 µM; in assay [9], 1.39 µM; in assay [10] it was 1.13 µM. Also, the TGI in [1] was 2.46 µM; in assay [2], 0.791 µM; in assay [3], 2.92 µM; in [4], 1.83 µM; in assay [5], 1.14 µM; in assay [6] it was 2.95 µM. In addition, the TGI in [7] is 2.32 µM; in assay [8] it was 1.77 µM; in assay [9], 3.12 µM; in assay [10] it was 2.42 µM.

Consider `Cc1ccccc1C(C(=O)NC1CCCCC1)N(C(=O)CNc1ncccc1F)c1cccc(F)c1` (stereo not drawn), for which the GI50 is > 100 µM in assay [1]; > 100 µM in assay [2]; > 100 µM in assay [3]; 27.2 µM in [4]; > 100 µM in assay [5]; 48.7 µM in assay [6]. Further, the GI50 in [7] was 38.3 µM; in assay [8] it was > 100 µM; in assay [9], > 100 µM; in assay [10], 25.1 µM. The TGI in assay [1], in assay [2], in assay [3], in assay [4], in [5] and in assay [6] was > 100 µM throughout. The TGI in assay [7], in [8], in [9] and in assay [10] was > 100 µM in each case.

Take `Cc1sc2c(c1C)C(c1ccc(Cl)cc1)=N[C@@H](CC(=O)NCCCN1CCN(C)CC1)c1nnc(C)n1-2`: the GI50 was > 30 µM in [1]; 1.33 µM in assay [2]; > 34.6 µM in assay [3]; 0.216 µM in [4]; 0.0995 µM in assay [5]; 30.3 µM in [6]. The figures for the GI50 in [8], in assay [9] and in assay [10] were 0.621 µM, 3.22 µM and 0.198 µM, respectively. Further, the TGI in assay [1] is > 100 µM; in [2], > 100 µM; in assay [3], > 100 µM; in [4], > 22.7 µM; in assay [5], > 100 µM; in assay [6] it was > 100 µM. Further, the TGI in assay [7], in assay [8], in assay [9] and in assay [10] was > 100 µM in each case.

Take `CN(C)Cc1c(C(=O)NCCOc2ccc(C(=O)NO)cc2)oc2ccccc12`: the GI50 in assay [1] was 0.267 µM; in assay [2] it was 0.272 µM; in assay [3], 0.346 µM; in assay [4], 0.158 µM; in [5] it was 0.133 µM; in assay [6], 0.464 µM. Besides, the GI50 was 0.626 µM in [7], 0.174 µM in assay [8], 0.299 µM in assay [9] and 0.392 µM in assay [10]. The TGI in assay [1] was 2.5 µM; in assay [2] it was 0.969 µM; in assay [3], > 100 µM; in assay [4], 0.851 µM; in assay [5], 0.282 µM; in assay [6] it was 6.02 µM. Also, the TGI is 7.6 µM in assay [7], 0.679 µM in [8], 1.98 µM in [9] and 18.2 µM in [10].

As to `Cc1cccc(Cl)c1NC(=O)c1cnc(Nc2cc(N3CCOCC3)cc(S(C)(=O)=O)c2)s1`, the GI50 was > 5.14 µM in assay [1]; 0.476 µM in assay [2]; 1.24 µM in assay [3]; 0.138 µM in assay [4]; 0.572 µM in assay [5]; 0.354 µM in [6]. Also, the results for the GI50 in assay [8], in assay [9] and in assay [10] were > 9.63 µM, 2.16 µM and 0.141 µM, respectively. Moreover, the TGI is > 10 µM in assay [1]; > 10 µM in [2]; > 10 µM in assay [3]; 0.826 µM in assay [4]; > 10 µM in [5]; > 10 µM in [6]. The TGI in [7] was > 10 µM; in assay [8], > 10 µM; in assay [9], > 10 µM; in assay [10], > 3.4 µM.

As for `CC1(C)CCC(C)(C)c2cc(NC(=O)c3ccc(C(=O)O)cc3)ccc21`, the TGI in assay [1] was > 82.2 µM; in assay [2], > 57.9 µM; in [3], > 100 µM; in [4], > 83.5 µM; in assay [5], > 55.9 µM; in [6] it was > 100 µM. The TGI was > 79.5 µM in assay [7], > 77.8 µM in [8], > 100 µM in assay [9] and > 90.5 µM in assay [10].

Consider `COc1cc(CCNC(=O)OC(C)(C)C)c2c(c1OC)SSSSS2`, for which the GI50 in [1] is 1.9 µM; in assay [2] it was 2.65 µM; in [3], 2.69 µM; in [4], 3.79 µM; in assay [5] it was 2.19 µM; in assay [6] it was 1.87 µM. Besides, the GI50 was 4.3 µM in [7], 2.28 µM in assay [8], 3.36 µM in [9] and 2.58 µM in assay [10]. Further, the TGI in assay [1] amounted to 3.68 µM; in assay [2], 5.51 µM; in assay [3] it was 5.97 µM; in [4], 32.6 µM; in assay [5] it was 4.35 µM; in [6], 4.04 µM. Also, the TGI was determined as 24.4 µM in assay [7], 4.78 µM in assay [8], 10.2 µM in assay [9] and 5.82 µM in assay [10].

With `Nc1nn(C(=O)Nc2c(F)cccc2F)c2ccccc12`, the GI50 in [1] was 56.3 µM; in assay [2], 65.7 µM; in [3], 83.9 µM; in assay [4], 73 µM; in assay [5], > 100 µM; in assay [6], 36.2 µM. In addition, the GI50 is 98.5 µM in assay [7], 54.9 µM in assay [8], 48.5 µM in [9] and 98.7 µM in assay [10]. Besides, the TGI in [1], in assay [2], in [3], in assay [4], in assay [5] and in assay [6] was > 100 µM each time. The TGI in assay [7], in assay [8], in assay [9] and in [10] was > 100 µM each time.

With `O=C1CC(N2C(=O)/C(=C/C(Cl)=C\c3ccc([N+](=O)[O-])cc3)SC2=S)C(=O)N1c1ccc(O)cc1` (stereo not drawn), the GI50 in [1] was 1.95 µM; in [2], 0.604 µM; in assay [3], 3.25 µM; in [4], 2.8 µM; in [5] it was 1.83 µM; in assay [6] it was 2.43 µM. In addition, the GI50 in [7] is 2.41 µM; in assay [8], 2.01 µM; in assay [9], 3.11 µM; in assay [10], 2.14 µM. Also, the TGI in assay [1] is 4.2 µM; in assay [2], 1.96 µM; in [3] it was 11.7 µM; in assay [4], 12.6 µM; in assay [5] it was 5.04 µM; in assay [6] it was 6.99 µM. Further, the TGI in assay [7] is 6.82 µM; in assay [8], 4.34 µM; in [9], 11.3 µM; in assay [10] it was 5.06 µM.
